Source: patent publication US20100247444A1, “COMPOUND, […], NUCLEAR […] RESONANCE […] METHOD, NUCLEAR […] RESONANCE IMAGING METHOD, MASS SP[…] AND MASS SP[…] METHOD” (KYOTO UNIVERSITY, priority 2007, published 2010)

Conditions: Meth-A cancer bearing BALB/c mouse, 100 μl of 2 mg/ml in PBS via tail vein, organs collected after 1 hour
Method: (i) Preparation of a cancer bearing mouse Meth-A cells cultured in abdominal cavity of a BALB/c mouse were harvested by administrating 50 ml saline to the mouse. The cells were collected by centrifugation and resuspended in PBS (50 ml). The cells were counted and prepared at 2.0×10^7/ml. 100 μl of the solution containing the cells was subcutaneously injected to a left foot of another BALE/c mouse. […] After 1 hour, the mouse was dissected and the necessary organs (blood (200 μl), liver, kidney, cancer) were collected into microtubes. 1× Lysis buffer (500 μl) was added to each of the tubes and the organs were mashed by using beads. The microtubes were centrifuged (14,000 rpm, 30 min) for the debris to be precipitated and the supernatants were collected and subjected to multiple resonance measurement utilizing magnetic coherence transfer between three elements of ^1H—^13C—^15N.

[13CH3][15N+]([13CH3])([13CH3])CCO [^13C3—^15N-choline chloride]
signals derived from methyl groups of cholines (triple resonance NMR, 3.0 ppm) in cancer (cancer tissue lysate supernatant): detected | signals derived from methyl groups of cholines (triple resonance NMR, 3.0 ppm) in kidney (kidney lysate supernatant): detected
